Values of other authors, collected in patent US20250381160A1, “Method and Apparatus for Providing Transdermal Delivery of a Carbidopa/Levodopa-Based Lotion for the Treatment of Parkinson's Disease” (Through The Skin LLC, priority 2024, published 2025).

Experiments:
Parkinson's Disease = details: carbidopa given with levodopa
[1] = with HA of 150,000-750,000 Daltons, 1-3% of the solution, versus formulations without hyaluronic acid
[2] = not given; remark: listed apart in the source

| SMILES | solubility in water | reduction of the amount of levodopa required to produce a given response (Parkinson's Disease) | increase of the amount that penetrated the skin [1] | half-life of levodopa ([2]; carbidopa and levodopa administered together) | plasma half-life of levodopa ([2]; without carbidopa) |
| --- | --- | --- | --- | --- | --- |
| CC(Cc1ccc(O)c(O)c1)(NN)C(=O)O (single isomer, unassigned; (-)) [Carbidopa, (-)-L-α-hydrazino-α-methyl-β-(3,4-dihydroxybenzene) propanoic acid monohydrate] | slightly soluble in water | about 75% | – | – | – |
| O=C(O)Cc1ccccc1Nc1c(Cl)cccc1Cl [diclofenac sodium] | – | – | 3 times | – | – |
| NC(Cc1ccc(O)c(O)c1)C(=O)O (single isomer, unassigned; (-)) [Levodopa, (-)-L-α-amino-β-(3,4-dihydroxybenzene) propanoic acid] | slightly soluble in water | – | – | about 1.5 hours | about 50 minutes |
